Consider three molecules from article PMC2360155, “Novel retinoic acid metabolism blocking agents have potent inhibitory activities on human breast cancer cells and tumour growth” (British Journal of Cancer, 2007).

Assay [1] concerns cyclin D1. As to the kind of experiment: Western blotting for cyclin D1 in MCF-7 cells. Format: cell-based, human. The settings on record: 6 days (4HPR 4 days). Here is the method:
(§1) At the end of the treatment, cells were scrapped and collected by washing with ice-cold PBS in a centrifuge tube. Cells were centrifuged at 2500 r.p.m. for 10 min, the pellet was again washed with ice-cold PBS and centrifuged. The cell pellet was then suspended in chilled cell lysis buffer (0.1 M Tris–HCl, 0.5% Triton X-100, protease inhibitor cocktail) and sonicated on ice for 10–15 s. The homogenate was kept on ice for 30 min and then centrifuged at 13 000 r.p.m. for 30 min. The supernatant was used as cell lysate. The cell lysates were stored at −80°C. Protein concentration of the cell lysates was determined using Bio-Rad protein assay reagents.
(§2) Protein lysates from MCF-7 and T47D cells were subjected to sodium dodecyl sulphate–polyacrylamide gel electrophoresis (SDS–PAGE) and immunoblotted for different proteins. […] Immunoreactive bands were visualised using the enhanced chemiluminescence detection reagents and analysis system (Amersham Bioscences) according to the manufacturer's instructions and quantified by densitometry using ImageQuant software version 5.
(§3) Figure 5 Western blotting of whole-cell lysates of treated MCF-7 and T47D cells for the expression of Cyclin D1. […] Numbers below the blot show fold decrease in expression of the protein as analysed by ImageQuant densitometry analysis. […]
For orientation: Immunoblotting shows a protein as a band on a membrane.

The test system of another assay is AP1 activity. As to the kind of experiment: Anti-AP1 assay (AP-1 CAT reporter, CV-1 cells cotransfected with RAR subtypes). The assay is classed as cell-based. The conditions noted are these: 10^−6 M; each of the three RAR subtypes cotransfected. Here is the method:
The ability of each RAMBA to inhibit AP1 activity was determined using anti-AP1 assays as we have described previously ([Soprano et al, 2000]). Briefly, CV-1 cells were cotransfected with 1.5 μg RAR subtype (RARα, RARβ and RARγ) expression vector construct in pSG5, 1.5 μg AP-1 CAT reporter DNA and 0.5 μg pCMV-β-gal DNA. […] Twenty-four hours later, the cells were harvested and CAT and β-gal activities were assayed. The percentage of AP-1 activity was calculated using the ethanol carrier control sample as 100%.

A further assay concerns PARP. As to the kind of experiment: Western immunoblotting for cleaved PARP in T47D cells. Format: cell-based, human. The conditions noted are these: 6 days. Here is the method: as §1, §2
Figure 7 (A) Western immunoblotting of whole-cell lysates of treated MCF-7 and T47D cells for the expression of Bad. […] Numbers below the blot show fold increase in expression of the protein as analysed by ImageQuant densitometry analysis. […]

For assay [2], the system named is cyclin D1. The experiment in a line: Western blotting for cyclin D1 in T47D cells. Format: cell-based, human. The settings on record: 1, 5 and 10 μM, 6 days. On the procedure: as §1, §2, §3
The next assay relates to T47D cells. As to the kind of experiment: TUNEL apoptosis assay, T47D. Format: cell-based, human. The conditions noted are these: 5 μM; 6 days; control about 1.5%. From the text:
(§4) The cells were rinsed with PBS and then the stained-labelled apoptotic cells were mounted using DAPI (diamidino-2-phenylindole 2HCl)-glycerol and visualised with a fluorescent microscope using two filters (1) for TUNEL stained cells, and (2) for DAPI stained cells, which represents all the cells (nuclei). Fluorescent microscope model was Nikon, Eclipse E400 and the software was SPOT advanced version 3.5.5 by Diagnostic Instruments Inc. (Sterling Heights, MI, USA).
(§5) Figure 6 Graphs showing apoptosis induced in (A) MCF-7 and (B) T47D cells as determined by TUNEL. […] TUNEL-stained apoptotic cells were counted against the DAPI stained cells to obtain percentage apoptosis. The experiments were repeated thrice with similar results. Error bars show s.e.m of three different fields of treated cells, statistically significant ^*P<0.01 and ^**P<0.001 vs control.

The subject of a further assay is MCF-7 cells. As to the kind of experiment: TUNEL apoptosis assay, MCF-7. Format: cell-based, human. The settings on record: 5 μM; 6 days; control about 1.5%.
Text: as §4, §5

In the case of `CC1=C(/C=C/C(C)=C/C=C/C(C)=C/C(=O)O)C(C)(C)CCC1` [ATRA, all-trans-retinoic acid, reference compound], the “Decrease of cyclin D1 protein expression compared with untreated control” value in the assay on cyclin D1 [1] is above 80%.
As to `CC1=C(/C=C/C(C)=C/C=C/C(C)=C/C(=O)O)C(C)(C)CCC1n1ccnc1` (stereo not shown) [VN/14-1], the “Reduction of AP1-dependent transcription activity” value with AP1 activity is reported as 20–40%. Further, the “Increase in level of cleaved PARP compared with control” value in the assay on PARP (1 μM) was determined as 6.3 fold; in the assay with PARP (5 μM) it was 7.5 fold. Also, in the assay with cyclin D1 [2], the “Expression of cyclin D1 (in words)” value is given as “significantly downregulated”.
As for `CC1=C(/C=C/C(C)=C/C=C/C(C)=C\C(=O)Nc2ccc(O)cc2)C(C)(C)CCC1n1ccnc1` (stereo not shown) [VN/69-1], the “Induction of apoptosis (TUNEL), T47D” value in the assay with T47D cells was “least effective of the RAMBAs in inducing apoptosis”. In addition, the “Induction of apoptosis (TUNEL), MCF-7” value with MCF-7 cells is recorded as “least effective of the RAMBAs in inducing apoptosis”.
